What follows are compounds tested on rabbit skeletal myofibrils (approximately 90% fast fibers) (assay: Activation of fast skeletal myofibrils (PUMA coupled-enzyme ATPase assay at pCa25)). Details: concentration at which the compound increased the enzymatic activity by 40%; calcium at pCa25; PM12 buffer pH 6.8.
Format: biochemical
Description: Preparation of fast skeletal myofibrils. Rabbit skeletal myofibrils were prepared based upon the method of Herrmann et al. (Biochem. 32(28):7255-7263(1993). Myofibrils were prepared from rabbit psoas muscle purchased from Pel-Freez Biologicals (Arkansas) within 2 days of ordering, stored on ice. Minced muscle was homogenized in 10 volumes of ice-cold “standard” buffer (50 mM Tris, pH 7.4, 0.1 M potassium acetate, 5 mM KCl, 2 mM DTT, 0.2 mM PMSF, 10 μM leupeptin, 5 μM pepstatin, and 0.5 mM sodium azide) containing 5 mM EDTA and 0.5% Triton X-100 using an Omni-Macro homogenizer. Myofibrils were recovered by low speed centrifugation (3000 rpm for 10 minutes) and washed 2 times in the Triton X-100 containing buffer to ensure removal of cellular membrane. Following the Triton washes, myofibrils were washed 3 times in “standard” buffer containing 2 mM magnesium acetate. A final wash in assay buffer (12 mM PIPES, pH 6.8, 60 mM KCl, 1 mM DTT) was performed and brought to 10% sucrose for flash freezing in liquid nitrogen and storage at −80° C.
Activation of Fast Skeletal Myofibrils. Fast fiber activators were identified by measuring the enzymatic activity of muscle myofibril preparations using the proprietary PUMA™ (see, e.g., U.S. Pat. Nos. 6,410,254, 6,743,599, 7,202,051, and 7,378,254) assay system. Myofibril preparations consisted of rabbit skeletal muscle (approximately 90% fast fibers) that had been mechanically homogenized and washed with a detergent (triton X-100) to remove cellular membranes. This preparation retained all of the sarcomeric components in a native conformation and the enzymatic activity was still regulated by calcium. Compounds were tested using a myofibril suspension and a level of calcium sufficient to increase enzymatic activity of the myofibrils to 25% of their maximal rate (termed pCa25). Enzymatic activity was tracked via a pyruvate kinase and lactate dehydrogenase-coupled enzyme system. This assay regenerates myosin-produced ADP into ATP by oxidizing NADH, producing an absorbance change at 340 nm. The buffering system was 12 mM Pipes, 2 mM MgCl2, 1 mM DTT at pH 6.8 (PM12 buffer).

Mean AC1.4, D (D=>20 uM):
NC(=O)c1cccc(-c2cnc(N)nc2)c1 [3-(2-aminopyrimidin-5-yl)benzamide]
CC(=O)NCc1cnc(-c2cnc(NC(C)(C)c3ncccc3F)nc2)s1 [N-{[2-(2-{[1-(3-fluoro(2-pyridyl))-isopropyl]amino}pyrimidin-5-yl)-1,3-thiazol-5-yl]methyl}acetamide]
NC(=O)c1cnc(NC2(c3ncccc3F)CCC2)nc1C(F)(F)F [2-{[(3-fluoro(2-pyridyl))cyclobutyl]amino)-4-(trifluoromethyl)pyrimidine-5-carboxamide]
CC(C)(Nc1ncc(-c2nc(CNC(=O)[C@H]3CCCN3)cs2)cn1)c1ncccc1F [((2R)pyrrolidin-2-yl)-N-{[2-(2-{[1-(3-fluoro(2-pyridyl))-isopropyl]amino}pyrimidin-5-yl)(1,3-thiazo-4-yl)]methyl}carboxamide]
COCCNc1nc(NC[C@]2(c3ncccc3F)C[C@H](F)C2)ncc1-c1ccccc1 [[2-({[3-fluoro-1-(3-fluoro(2-pyridyl))cyclobutyl]methyl}amino-5-phenylpyrimidin-4-yl](2-methoxyethyl)amine]
O=C(O)c1nc2cnc(NCC3(c4ncccc4F)CCC3)nc2s1 [5-({[(3-fluoro-2-pyridyl)cyclobutyl]methyl}amino)-1,3-thiazolo[5,4-d]pyrimidine-2-carboxylic acid]
CCOC(=O)c1csc(-c2cnc(NCC3(c4ncccc4F)CCC3)nc2)n1 [ethyl 2-[2-({[(3-fluoro-2-pyridyl)cyclobutyl]methyl}amino)pyrimidin-5-yl]-1,3-thiazole-4-carboxylate]
N-(2-aminoethyl)[2-({[(3-fluoro(2- pyridyl))cyclobutyl]methyl}amino) pyrimidin-5-yl]carboxamide
NC(=O)c1cnc(NC2(c3ncccc3F)CCC2)nc1 [2-{[(3-fluoro-2-pyridyl)cyclobutyl]amino}pyrimidine-5-carboxamide]
N#Cc1ccc2nc(NC3(c4ncccc4F)CCC3)ncc2c1 [2-{[(3-fluoro-2-pyridyl)cyclobutyl]amino}quinazoline-6-carbonitrile]
CC(C)(Nc1ncc(Br)cn1)c1ncccc1F [(5-bromopyrimidin-2-yl)[1-(3-fluoro(2-pyridyl))-isopropyl]amine]
CC(C)(Nc1ncc(-n2cc(C(=O)NCCC(N)=O)cn2)cn1)c1ncccc1Cl [N-(2-carbamoylethyl)[1-(2-{[1-(3-chloro)(2-pyridyl))-isopropyl]amino}pyrimidin-5-yl)pyrazol-4-yl]carboxamide]
COc1ccc(-c2cnc(NC[C@]3(c4ncccc4F)C[C@H](F)C3)nc2)cn1 [{[3-fluoro-1-(3-fluoro(2-pyridyl))cyclobutyl]methyl} [5-(6-methoxy(3-pyridyl))pyrimidin-2-yl]amine]
CC(C)(CNc1ncc2c(n1)CN(C(=O)C(N)=O)CC2)c1ccc(F)cc1 [2-(2-{[2-(4-fluorophenyl)-2-methylpropyl]amino}(5,6,7,8-tetrahydropyridino[3,4-d]pyrimidin-7-yl))-2-oxoacetamide]
CC(C)(Nc1ncc(-c2nc(C(=O)O)co2)cn1)c1ncccc1Cl [2-(2-{[1-(3-chloro(2-pyridyl))-isopropyl}amino}pyrimidin-5-yl)-1,3-oxazole-4-carboxylic acid]
CN(C)c1nc(NC[C@]2(c3ncccc3F)C[C@H](F)C2)ncc1-c1ccccc1 [[2-({[3-fluoro-1-(3-fluoro(2-pyridyl))cyclobutyl]methyl}amino-5-phenylpyrimidin-4-yl]dimethylamine]

Mean AC1.4, A (A=<1 uM):
CS(=O)(=O)NC(=O)c1cccc(-c2cnc(NCC3(c4ncccc4F)CC(F)C3)nc2)c1 (stereo not shown) [{3-[2-({[3-fluoro-1-(3-fluoro(2-pyridyl))cyclobutyl]methyl}amino)pyrimidin-5-yl]phenyl}-N-(methylsulfonyl)carboxamide]
[5-(2-{[1-(3-chloro(2-pyridyl))- isopropyl}amino}pyrimidin-5-yl)(1H- indazol-3-yl)]methylsulfonyl)amine
CSc1ccccc1C(C)(C)Nc1ncc(-c2cccc(C(N)=O)c2)cn1 [3-(2-{[1-methyl-1-(2-methylthiophenyl)ethyl]amino}pyrimidin-5-yl)benzamide]
CC(C)(Nc1ncc(-c2ncc(C(N)=O)s2)cn1)c1cccc(OC(F)F)n1 [2-[2-({1-[6-(difluoromethoxy)(2-pyridyl)]-isopropyl}amino)pyrimidin-5-yl]-1,3-thiazole-5-carboxamide]
COc1nc(NC[C@]2(c3ncccc3F)C[C@H](F)C2)ncc1-c1cccc(C(N)=O)c1 [3-[2-({[3-fluoro-1-(3-fluoro(2-pyridyl))cyclobutyl]methyl}amino)-4-methoxypyrimidin-5-yl]benzamide]
CNC(=O)c1ccc(F)c(-c2cnc(NC[C@]3(c4ncccc4F)C[C@H](F)C3)nc2)c1 [{4-fluoro-3-[2-({[3-fluoro-1-(3-fluoro(2-pyridyl))cyclobutyl]methyl}amino)pyrimidin-5-yl]phenyl}-N-methylcarboxamide]
NC(=O)c1ccc(F)c(-c2cnc(NC[C@]3(c4ncccc4F)C[C@H](F)C3)nc2)c1O [4-fluoro-3-[2-({[3-fluoro)-1-(3-fluoro(2-pyridyl))cyclobutyl]methyl}amino)pyrimidin-5-yl]-2-hydroxybenzamide]

Mean AC1.4, B (B=1-10 uM):
NCc1cnc(-c2cnc(NCC3(c4ncccc4Cl)CCC3)nc2)s1 [{5-[5-(aminomethyl)(1,3-thiazol-2-yl)]pyrimidin-2-yl}{[3-chloro(2-pyridyl))cyclobutyl]methyl)amine]
NC(=O)c1cccc(-c2cnc(NCC3(c4ccccn4)CCC3)nc2)c1 [3-(2-{[(2 pyridylcyclobutyl)methyl]amino}pyrimidin-5-yl)benzamide]
CC(C)(CNc1ncc(-c2cncc(C(N)=O)c2)cn1)c1ccc(F)cc1 [5-(2-{[2-(4-fluorophenyl)-2-methylpropyl]amino}pyrimidin-5-yl)pyridine-3-carboxamide]
CC(C)(Nc1ncc(-c2cc(C(N)=O)no2)cn1)c1ncccc1Cl [5-(2-{[1-(3-chloro(2-pyridyl))-isopropyl]amino}pyrimidin-5-yl)isoxazole-3-carboxamide]
NC(=O)c1ccc(C(N)=O)c(-c2cnc(NC[C@]3(c4ncccc4F)C[C@H](F)C3)nc2)c1 [2-[2-({[3-fluoro-1-(3-fluoro(2-pyridyl))cyclobutyl)]methyl}amino) pyrimidin-5-yl]benzene-1,4-dicarboxamide]
CC(C)(Nc1ncc(-n2cc(C(N)=O)cn2)cn1)c1ncccc1Cl [1-(2-{[1-(3-chloro(2-pyridyl))-isopropyl]amino}pyrimidin-5-yl)pyrazole-4-carboxamide]
CC(C)(Nc1ncc(-c2c[nH]c(=O)c(C(N)=O)c2)cn1)c1ncccc1Cl [5-(2-{[1-(3-chloro(2-pyridyl))-isopropyl]amino}pyrimidin-5-yl)-2-oxohydropyridine-3-carboxamide]
NC(=O)c1ccc(F)cc1-c1cnc(NC[C@]2(c3ncccc3F)C[C@H](F)C2)nc1 [4-fluoro-2-[2-({[3-fluoro-1-(3-fluoro(2-pyridyl))cyclobutyl]methyl}amino)pyrimidin-5-yl]benzamide]

Mean AC1.4, C (C=10-20 uM):
CC(C)(Nc1ncc(-c2cc(C#N)ccn2)cn1)c1ncccc1Cl [2-(2-{[1-(3-chloro(2-pyridyl))-isopropyl]amino}pyrimidin-5-yl)pyridine-4-carbonitrile]
N#Cc1cnc(NC2(c3ccc(F)cc3)CCC2)nc1 [2-{[(4-fluorophenyl)cyclobutyl]amino} pyrimidine-5-carbonitrile]
N#Cc1cc(-c2cnc(NC3(c4ccc(F)cc4)CCC3)nc2)ccn1 [4-(2-{[(4-fluorophenyl)cyclobutyl]amino}pyrimidin-5-yl)pyridine-2-carbonitrile]

Reference: patent US11369565B2, “Amino-pyrimidine skeletal muscle modulators” (Cytokinetics, Inc., priority 2010, dated 2022)
